The values below come from patent US11383003B2, “Water soluble farnesol analogs and their use” (Kimberly-Clark Worldwide, Inc., priority 2012, dated 2022).

In data set [1] the test system is C. elegans glp4; sek1 infected with C. albicans SC5314. Nature of the data set: Death rate of C. elegans glp4; sek1 infected with C. albicans SC5314, 96 well plates. Format: in vivo, Caenorhabditis elegans. Particulars: for effect on death rate of infected C. elegans (in words): 0.4 mM to 3 mM (the tested four concentrations); for % change in the death rate compared to the control: 25° C. On the procedure: Caenorhabditis elegans glp4; sek1 was used as the model for […]. Breger et al. (Breger, J.; Fuchs, B. B.; Aperis, G.; Moy, T. I., Ausubel, F. M., Mylonakis, E.; “Antifungal chemical compounds identified using a C. elegans pathogenicity assay.” PLoS Pathogens 3: 168-178; 2007) reported that the glp-4 mutation rendered the strain incapable of producing progeny at 25° C., and the sek-1 mutation enhanced the sensitivity of the strain to various pathogens, thereby decreasing the time for screening assays. It was observed that no progenies was produced by the Caenorhabditis elegans glp4; sek1 strain after 3 d incubation at 25° C.
The synchronization of C. elegans was achieved by collecting the eggs and arresting the larvae at L1 stage. The commonly used bleach treatment was able to release the eggs from the adult worms. However, it was observed that the released eggs were not always able to hatch after treated with sodium hypochlorite (0.2, 0.3, 0.4, 0.5, 0.7 or 1%) for 3-5 min. A modified egg laying method was developed to synchronize worms to L1 stage. In brief, stock cultures of C. elegans glp4; sek1, maintained on Nematode Growth Media plates (NGM plates), were subcultured onto NGM plates with OP 50 and incubated at 15° C. for 6-9 days. Then a chunk (1 cm^2) of agar with gravid adults was subcultured again onto NGM plates with OP50 and incubated at 15° C. After incubation of 3-7 days, the worms were gently washed off with 3 ml of M 9 buffer on the rotating platform (100 rpm). The plate was tilted on its lid to allow the liquid and worms drain to one side of the plate. The liquid and worms were aspirated off. The plate was washed again with M9 buffer three more times to remove OP50 as much as possible. After washing, the plate was incubated at 25° C. overnight to let the eggs hatch overnight. Since there was no OP50, the larvae were arrested at the L1 stage. The live C. elegans glp4; sek1 was quite curvy; whereas the dead C. elegans glp4; sek1 tended to be straight, and in most cases the dead worms with the hyphae of C. albicans pieced through the body. The curvy shape and movement after shaking were used as the criteria for live.
The In vitro screening assay, based on the method of Tampakakis et al (Tampakakis, E.; Okoli, I.; Mylonakis, E.; “A C. elegans-based, whole animal, in vivo screen for the identification of antifungal compounds.” Nature Protocols 3:1925-1931; 2008), is described as follows:
L1 worms, which were prepared by the modified egg-laying method, were collected by centrifugation at 675 g for 30 s at room temperature, and the supernatant was removed. Worms were resuspended in M 9 buffer and inoculated on NGM agar plates with OP50, ˜1000 worms per plate. After 2-3 days incubation at 25° C., the worms were washed off with M 9 buffer for the […] assay.
The control were worms fed on OP50.

For data set [2], the system named is C. albicans SC5314. Briefly: Germ tube formation (GTF %) in vitro screening, GlcNAc-triggered differentiation assay. The format is cell-based, Candida albicans. How it is done:
Based on the results in FIG. 3, single cell suspensions of SC5314 was prepared as follows. Stock culture of C. albicans SC5314 was streaked onto YPD agar (YPDA) and incubated at 30° C. overnight. Single colonies were subcultured in YPD broth (YPDB) and incubated 30° C., 200 rpm overnight. Overnight culture in YPDB was subcultured in YPD broth again and incubated 30° C., 200 rpm 48 h. Cells were collected by centrifugation (4000 g 10 min) at 4° C., washed three times with sterile water, and then resuspended in sterile water a final concentration of 10^9 colony-forming unit/ml (cfu/ml). The suspension were stored at 4° C. at least 1 d, then subcultured into YPDB to a final concentration of 10^6 cfu/ml. After 48 h incubation, cell suspension was examined under the microscope for single cell percentage. When the single cell percentage exceeded 80%, cells were collected and washed three times with water, then resuspended in water to a final concentration of 10^9 cfu/ml, and stored at 4° C. for no more than a month.
Two approaches were taken to determine the percentage of cells with germ tubes formed (GTF %). One way was to count the total cells at the start of incubation, and count the ungerminated cells after incubation, then calculate the GTF % as (1—ungerminated cells/total cells at 0 h)*100. Another way was to store the samples at 15° C. for 20 h after incubation, then count the germinated cells and total cells after disaggregation, then calculated the GTF % as (germinated cells/total cells after storage)*100. […] Therefore, for practical purposes, the GTF % was determined by the first method, that is, GTF %=(1—ungerminated cells/total cells at 0 h)*100, for the in vitro screening discussed herein.
A screening medium, containing 11 mM imidazole buffer, 3 mM MgSO4, and 2.6 mM N-acetyl-D-glucosamine (GlcNAc) has been used to study the effect of farnesol analogs on the germ tube formation of C. albicans. Here, the germ tube formation of C. albicans in modified screening media was assessed with various concentrations of imidazole buffer (10 mM, 30 mM and 50 mM) and MgSO4 (0.5 mM, 1.5 mM and 3 mM). […] It took 2 h to 3 h for the GTF % to reach above 80%. For practical purposes, the screening medium, containing 11 mM imidazole buffer, 0.5 mM MgSO4, and 2.6 mM N-acetyl-D-glucosamine (GlcNAc) was adopted for in vitro screening the quorum sensing inhibitory effect of farnesol compounds.
The in vitro screening assay was based on the N-acetylglucosamine (GlcNAc)-triggered differentiation assay (Hornby et al., “Quorum sensing in the dimorphic fungus Candida albicans is mediated by farnesol;” Applied and Environmental Microbiology 67:2982-2992; 2001), which included 0.56 ml of 0.1 M imidazole buffer (pH 6.5), 0.15 ml of 0.1 M MgSO4, 0.13 ml of 0.1 M GlcNAc, and 4.16 ml of sterilized water. Bioassays of quorum sensing candidates were conducted by the addition of the chemical, as a solution in 100% methanol, to the bioassay media; the final concentration of methanol was no greater than 1%.

Data set [3] concerns C. elegans glp4; sek1. Briefly: Toxicity: death rate of C. elegans glp4; sek1 fed on E. coli OP50. Particulars: for Death rate (%): 2 mM, worms fed on E. coli OP50, 25° C. How it is done: The toxicity of the selected compounds/products were tested using the C. elegans glp4; sek1 fed on E. coli OP50 (Table 5).
Stock cultures of C. albicans SC 5314 was subcultured into 3 ml of YPD broth and incubated at 30° C. Then the overnight culture in broth was spread onto YPD agar, and incubated at 30° C. The 24 h old lawn of SC5314 was used to feed worms for 2 h at 25° C. The control were worms fed on OP50.
The worms were washed off the YPD plates and washed twice with M9 buffer. The worms were resuspended in screening media, M9 buffer with 0.3% Tween 80. The worm suspension (50 μl) was dispensed into the wells of 96-well plates, 20-30 worms/well. Aliquots (50 μl) of compounds in screening media were added to wells, 5 wells each compound. The 96 well plates were incubated at 25° C. for up to 5 days. Live and dead worms were counted during incubation, and the death rates of worms were calculated.

The mark [4] stands for this setting: 2.0 mM, 4 days, two replicates (* three).
[5] abbreviates: 2.0 mM, 5 days, two replicates (* three).

For `CC(C)=CCC/C(C)=C/CC/C(C)=C/COCCCCO` [#5 synthesized analog], the “effect on death rate of infected C. elegans (in words)” value (from here on “effect on death rate”) in data set [1] was “did not have significant effect on the death of the worms”. The “% change in the death rate compared to the control” value (“% change in the death rate” for short) in data set [1] (0.4 mM, 4 days, two replicates) is −3 ± 6%; in data set [1] (0.4 mM, 5 days, two replicates), −6 ± 3%; in data set [1] (1.0 mM, 4 days, two replicates), 2 ± 3%; in data set [1] (1.0 mM, 5 days, two replicates), 9 ± 1%; in data set [1] (setting [4]) it was −8 ± 1%; in data set [1] (setting [5]) it was 2 ± 2%. The “% change in the death rate” value in data set [1] (3.0 mM, 4 days, two replicates) was −4 ± 4%; in data set [1] (3.0 mM, 5 days, two replicates), 4 ± 1%. Moreover, the “GTF % (mean ± SEM, n = 2)” value in data set [2] (100 μM, * one replicate) turned out to be 73.8 ± 4.8%; in data set [2] (200 μM) it was 53.6 ± 3.0%. The “Death rate (%)” value in data set [3] is on record as 4%.
For the compound `OCCc1ccc(O)c(O)c1` [hydroxytyrosol], the “GTF % (mean ± SEM, n = 2)” value is recorded as 78.0* % in data set [2] (100 μM, * one replicate) and 84.9 ± 0.1% in data set [2] (200 μM).
For `OC[C@H]1O[C@@H](OCCc2ccc(O)cc2)[C@H](O)[C@@H](O)[C@@H]1O` [salidroside], in that order: 93.2* % and 78.0 ± 5.9%.
For `CC(C)=CCC/C(C)=C/CC/C(C)=C/COCCCO` [#6 synthesized analog], in that order: 75.1 ± 0.5% and 51.1 ± 3.2%.
On to `CC(C)=CCC/C(C)=C/CC/C(C)=C/COC(=O)CCC(=O)OCCO` [#4 synthesized analog], for which the “effect on death rate” value in data set [1] is on record as “did not have significant effect on the death of the worms”. Also, the “% change in the death rate” value in data set [1] (0.4 mM, 4 days, two replicates) is reported as 8 ± 8%; in data set [1] (0.4 mM, 5 days, two replicates), 7 ± 1%; in data set [1] (1.0 mM, 4 days, two replicates) it was −3 ± 3%; in data set [1] (1.0 mM, 5 days, two replicates), −1 ± 4%; in data set [1] (setting [4]), 4 ± 8%; in data set [1] (setting [5]), 8 ± 11%. Besides, the “% change in the death rate” value in data set [1] (3.0 mM, 4 days, two replicates) came out at 7 ± 4%; in data set [1] (3.0 mM, 5 days, two replicates), 10 ± 5%. The “GTF % (mean ± SEM, n = 2)” value was found to be 59.2 ± 4.8% in data set [2] (100 μM, * one replicate) and 31.1 ± 8.2% in data set [2] (200 μM). The “Death rate (%)” value in data set [3] turned out to be 2%.
In the case of `O=C(O)Cc1ccc(O)cc1` [4-hydroxy phenyl acetic acid], the “GTF % (mean ± SEM, n = 2)” value in data set [2] (100 μM, * one replicate) is 93.1* %; in data set [2] (200 μM) it was 86.2 ± 1.8%.
Regarding `C=CC(C)(O)CC/C=C(\C)CCC=C(C)C` (stereo not drawn) [trans-nerolidol, reference compound], the “effect on death rate” value in data set [1] is listed as “increased the death rate of the worm significantly”. The “% change in the death rate” value was 11 ± 4% in data set [1] (0.4 mM, 4 days, two replicates); 4 ± 5% in data set [1] (0.4 mM, 5 days, two replicates); 3 ± 7% in data set [1] (1.0 mM, 4 days, two replicates); −8 ± 5% in data set [1] (1.0 mM, 5 days, two replicates); 25 ± 10% in data set [1] (setting [4]); 10 ± 2% in data set [1] (setting [5]). The “% change in the death rate” value worked out at 7 ± 0% in data set [1] (3.0 mM, 4 days, two replicates) and 9 ± 9% in data set [1] (3.0 mM, 5 days, two replicates). For the same compound, the “GTF % (mean ± SEM, n = 2)” value is 92.4* % in data set [2] (100 μM, * one replicate) and 51.6 ± 1.8% in data set [2] (200 μM). Further, the “Death rate (%)” value in data set [3] came to 23%. Also, in data set [3] (in vivo), the “toxicity to C. elegans fed on E. coli OP50 (in words)” value is recorded as “toxic to the worm”.
As for `CC(C)=CCC/C(C)=C/CC/C(C)=C/CO[C@@H]1C(O)C(O)OC(CO)C1O` (stereo partly shown) [#8 synthesized analog], the “GTF % (mean ± SEM, n = 2)” value in data set [2] (100 μM, * one replicate) is listed as 76.6 ± 0.3%; in data set [2] (200 μM), 66.3 ± 0.6%.
The matching figures for `OC=Cc1ccccc1` [β-phenylethenol]: 91.7* % and 84.5 ± 0.3%.
The matching figures for `O=C(O)Cc1ccccc1O` [2-hydroxy phenyl acetic acid]: 90.3* % and 71.3 ± 2.5%.
For `CC(C)=CCC/C(C)=C/CC/C(C)=C/COCCO` [#7 synthesized analog], in that order: 72.6 ± 1.7% and 58.8 ± 2.1%.
Take `COc1cc(CCN)ccc1O` [3-Methoxy-4-hydroxy-phenylethyl amine]: the “GTF % (mean ± SEM, n = 2)” value in data set [2] (100 μM, * one replicate) was 95.7* %; in data set [2] (200 μM), 86.4 ± 3.3%.
